Experimental data as given in patent US8937050B2, “Methods and compositions for treatment of autism” (The Johns Hopkins University, priority 2011, dated 2015).

Tests used:
XALD fibroblasts [1] = assay: Inhibition studies: ATP5B immunofluorescence of drug-induced mitochondrial biogenesis; assay type: cell-based, human; conditions: inhibitor added before 4PBA, HU, TSA or SFN; XALD fibroblasts
Experimental: Performed as described in Watkins et al., 1995 using 4% formaldehyde, 1% Triton X-100, primary antibody anti-ATP5B (Millipore, Billerica, Mass.) or anti-ABCD3 (Invitrogen, Carlsbad, Calif.), and secondary antibody sheep anti-mouse IgG FITC-conjugated (Santa Cruz Biotechnology, Santa Cruz, Calif.) or goat anti-rabbit IgG rhodamine-conjugated (Jackson ImmunoResearch, West Grove, Pa.).
Antimycin A (10 ng/mL), LY294002, PD98059, RO-31-8425, SB203580, SP600125, and L-NAME were obtained from Sigma. Compound C was from EMD Biosciences (Darmstadt, Germany). Human fibroblasts were treated with each inhibitor. Then, 45-75 min later, either 4PBA, HU, TSA, or SFN was added. Cells were stained four to six days after treatment with one of the small molecules. As a control for inhibitors dissolved in DMSO, fibroblasts were treated with an equivalent amount of DMSO in the absence of inhibitor. […]
In FIGS. 2A-B, the JNK inhibitor SP600125 (10 μM+inh) was utilized. […] XALD fibroblasts were treated with each drug for four days with or without SP600125. (400× magnification). […] Normal human fibroblasts were treated with each of the small four molecules with or without SP600125 for six days. Quantitative in-cell western analyses were performed using anti-ATP5B.

FL-SMN mRNA = assay: RT-PCR of FL-SMN and total SMN mRNA in spinal muscular atrophy fibroblasts; assay type: cell-based, human; conditions: effect of co-treatment with stress pathway inhibitor; FIG. 8B
Experimental: Following the manufacturer's protocols, DNase I-treated cDNA was synthesized using Superscript III or Thermoscript reverse transcriptase (Invitrogen). PCR reactions were performed in duplicate on the Roche Lightcycler 3.5 (Basel, Switzerland) or the Bio-Rad iCycler (Hercules, Calif.) using Quantitech SYBR green PCR mix (Qiagen, Valencia, Calif.). GeNorm software calculated a normalization factor for each sample using the relative amounts of at least two of the following reference genes, β2-microglobulin, […], actin, and/or eukaryotic elongation factor 1A (Vandesompele et al., 2002). Primers for the various experiments described herein are listed below.
Type I and type III spinal muscular atrophy (SMA I or SMA III) fibroblasts were treated with SFN for the indicated times. The relative fold increase in the ratio of FL-SMN/total SMN transcripts compared with the untreated cell line (normalized to 1) is plotted. Cell lines from left to right are GM09677, GM00232 and 2906. N≧2 independent experiments.
Spinal muscular atrophy fibroblasts were treated with 1.5 mM SFN alone for 51 hr. (SMA I, GM09677) or treated with 0.5 mM SFN for 8 hr. (SMA III, 2906) with or without […] SP600125 (JNK inhibitor), 2.5 mM 3-methyladenine (autophagy inhibitor, APG), […] antimycin A (mitochondrial inhibitor, MITO) or […] sirtinol (SIRT1 inhibitor). The fold increases in FL-SMN expression compared with either GAPDH or total SMN expression and the fold increase in total SMN expression compared with GAPDH expression after SFN treatment is plotted. Untreated values were normalized to 1 and are indicated by the horizontal line. (n=1 per cell line, performed in duplicate)
To determine which stress pathways are necessary for the increase in FL-SMN production, spinal muscular atrophy fibroblasts were co-treated with SFN and either SP600125, an inhibitor of the JNK pathway (Bennett et al., 2001), 3-methyladenine, an inhibitor of the autophagy pathway (Seglen et al., 1982), antimycin A, a mitochondrial inhibitor (Ranganathan et al., 2009), or sirtinol, an inhibitor of SIRT1 activity (Grozinger et al., 2001). […] SIRT1, an NAD+-dependent deacetylase, is known to regulate cellular stress responses, cellular metabolism and cellular survival (Salminen et al., 2009). Specifically, SIRT1 inhibition reduces the induction of HSR genes (Westerheide et al., 2009); SIRT1 activity enhances SOD2 expression (Anastasiou et al., 2006); SIRT1 negatively regulates the mammalian target of rapamycin triggering autophagy (Haigis et al., 2010); and SIRT1 activates mitochondrial biogenesis via the stress-responsive transcription factor PGC1a (Yu et al., 2009). The yeast ortholog Sir2 is necessary for the induction of mitochondrial biogenesis by 4PBA or HU in Saccharomyces cerevisiae (Cha 2010). […] However, SIRT1 can be activated by various post-translational changes. Therefore, the potential involvement of SIRT1 in the therapeutic effects of these drugs by inhibition studies was evaluated.

XALD fibroblasts [2] = assay: Fatty acid β-oxidation of 1-14C-labeled fatty acids; assay type: cell-based, human
Experimental: Fatty acid β-oxidation activity in XALD fibroblasts was determined by measuring their capacity to degrade 1-^14C-labeled fatty acids to water-soluble products as described in McGuiness et al., 2003.
4PBA-induced peroxisomal VLCFA β-oxidation (degradation) is dependent on mitochondrial long chain fatty acid (LCFA) β-oxidation (McGuinness et al., 2003). […] Antimycin A (AA) is a cytochrome c reductase inhibitor that inhibits the mitochondrial electron transport chain, mitochondrial biogenesis, and thus, cellular respiration (Ranganathan et al., 2009). […] XALD fibroblasts were treated with 4PBA in the presence or absence of antimycin A (AA), a cytochrome c reductase inhibitor, for five days and β-oxidation levels of LCFA (C16:0) and VLCFA (C24:0) levels were measured.

K562 cells [3] = assay: Flow cytometric analysis of mitochondrial mass (Mitotracker); assay type: cell-based, human; conditions: FIG. 1C
Experimental: (§1) Fibroblasts (70-95% confluent) were treated with 5 mM 4PBA (1 mM for JNK inhibition studies), 600 μM HU, 200 nM TSA, or 5 μM SFN unless otherwise specified.
(§2) K562 cells were incubated with 50 nM Mitotracker Green FM, 300 nM Mitotracker Deep Red 633 (Invitrogen), or PBS as a negative control for 15 min at 37° C. or stained with anti-Pex14 using Caltag Fix and Perm reagents (Invitrogen) following the manufacturer's instructions. Stained cells were suspended in 0.5 mL of 1% paraformaldehyde/PBS and subjected to flow cytometric analysis (FACScan machine, Becton Dickinson, Franklin Lakes, N.J.).
(§3) K562 cells were treated with SB and HU for four to ten days. […] (n≧3 unless otherwise noted).
To determine whether the induction of mitochondrial biogenesis by SB or HU treatment was necessary for the induction of HbF-producing cell production, K562 cells were treated with SB or HU in the presence or absence of AA. […] After two to four days of drug treatment with or without AA, mitochondrial mass was measured using Mitotracker, a mitochondrial stain. Fold change (drug treated/control) is shown. […] After four days of drug treatment with or without AA, cells were stained with DAF. The relative number of cells producing HbF (DAF stained cells) were plotted. […] After eight to ten days of drug treatment, peroxisome proliferation was measured using an antibody against the peroxisomal membrane protein, PEX14 and a FITC-labeled secondary antibody. Fold change (drug treated/control) is shown. In FIGS. 1C, 1D, and 1E, the * represents a statistically significant increase in a measurement between drug treated and control samples or a statistically significant decrease in a measurement between drug treated and drug treated samples in the presence of AA (p≦0.05) (Bars=SEM). This finding indicates dependence of the beneficial effect (i.e., elevated HbF levels) on induced mitochondrial biogenesis. Thus, the therapeutic effects observed in SCD may involve the pharmacological induction of mitochondrial biogenesis by SB or HU. […]

K562 cells [4] = assay: HbF-producing cell production (DAF staining); assay type: cell-based, human; conditions: FIG. 1D
Experimental: as §1
K562 cells were suspended in 1.1 mL media and 240 μL of DAF [working solution 50 μL 2,7diaminofluorene (DAF) stock (50 μg DAF in 5 mL 90% glacial acetic acid), 50 μL 30% hydrogen peroxide, and 2.5 ml 200 mM Tris-HCl, pH 7.0]. DAF stained hemoglobinized cells were scored using a hemocytometer.
as §3
To determine whether the induction of mitochondrial biogenesis by SB or HU treatment was necessary for the induction of HbF-producing cell production, K562 cells were treated with SB or HU in the presence or absence of AA. […] After two to four days of drug treatment with or without AA, mitochondrial mass was measured using Mitotracker, a mitochondrial stain. Fold change (drug treated/control) is shown. […] After four days of drug treatment with or without AA, cells were stained with DAF. The relative number of cells producing HbF (DAF stained cells) were plotted. […] After eight to ten days of drug treatment, peroxisome proliferation was measured using an antibody against the peroxisomal membrane protein, PEX14 and a FITC-labeled secondary antibody. Fold change (drug treated/control) is shown. In FIGS. 1C, 1D, and 1E, the * represents a statistically significant increase in a measurement between drug treated and control samples or a statistically significant decrease in a measurement between drug treated and drug treated samples in the presence of AA (p≦0.05) (Bars=SEM). This finding indicates dependence of the beneficial effect (i.e., elevated HbF levels) on induced mitochondrial biogenesis. Thus, the therapeutic effects observed in SCD may involve the pharmacological induction of mitochondrial biogenesis by SB or HU.
K562 cells were treated for four days with HU in the presence or absence of SP600125 or PBS as a control (CON). […]

K562 cells [5] = assay: Flow cytometric analysis of peroxisome proliferation (PEX14); assay type: cell-based, human; conditions: eight to ten days, FIG. 1E
Experimental: as §1, §2, §3
To determine whether the induction of mitochondrial biogenesis by SB or HU treatment was necessary for the induction of HbF-producing cell production, K562 cells were treated with SB or HU in the presence or absence of AA. […] After two to four days of drug treatment with or without AA, mitochondrial mass was measured using Mitotracker, a mitochondrial stain. Fold change (drug treated/control) is shown. […] After four days of drug treatment with or without AA, cells were stained with DAF. […] After eight to ten days of drug treatment, peroxisome proliferation was measured using an antibody against the peroxisomal membrane protein, PEX14 and a FITC-labeled secondary antibody. […]

HbF = conditions: Keefer et al., 2006; cited from earlier work
[6] = K562 cells, 1.2 mM SB or 100 μM HU

In the case of `COc1cccc(-c2cc(=O)c3ccccc3o2)c1N` [PD98059], the “Inhibits Mitochondrial Biogenesis?” value (XALD fibroblasts [1]) is reported as “no”.
For `CC(NC(=O)c1ccccc1/N=C/c1c(O)ccc2ccccc12)c1ccccc1` (stereo not drawn) [sirtinol], the “increase in FL-SMN transcript levels in SFN-treated spinal muscular atrophy fibroblasts” value (shortened to “increase in FL-SMN transcript levels”) (FL-SMN mRNA) was “prevented”.
For `N#CC(=C(/N)Sc1ccccc1N)/C(C#N)=C(\N)Sc1ccccc1N` [U0126], the “Inhibits Mitochondrial Biogenesis?” value (XALD fibroblasts [1]) was “no”.
With `COC(=O)[C@@H](N)CCCNC(=N)N[N+](=O)[O-]` [L-NAME] the “Inhibits Mitochondrial Biogenesis?” value (XALD fibroblasts [1]) was “no”.
In the case of `COc1cc(C[C@H]2C(=O)OC[C@@H]2Cc2ccc(OC)c(OC)c2)ccc1O` [arctigenin], the “Inhibits Mitochondrial Biogenesis?” value (XALD fibroblasts [1]) is reported as “no”.
In the case of `Cn1cc(C2=C(c3c4n(c5ccccc35)CCC(CN)C4)C(=O)NC2=O)c2ccccc21` (stereo not drawn) [RO-21-8425], the “Inhibits Mitochondrial Biogenesis?” value (XALD fibroblasts [1]) is reported as “no”.
In the case of `c1cc(-c2cnn3cc(-c4ccc(OCCN5CCCCC5)cc4)cnc23)ccn1` [compound C], the “Inhibits Mitochondrial Biogenesis?” value (XALD fibroblasts [1]) is reported as “no”.
With `Cn1cnc(N)c2ncnc1-2` [3-methyladenine] the “increase in FL-SMN transcript levels” value (FL-SMN mRNA) was “prevented”.
In the case of Antimycin A [AA], the “induction of peroxisomal VLCFA β-oxidation” value (XALD fibroblasts [2]; 4PBA in the presence of AA) is reported as “blocked”, the “4PBA-induction of mitochondrial LCFA β-oxidation” value (XALD fibroblasts [2]; in the presence of AA (10 ng/mL)) is reported as “inhibited” and the “induction of mitochondrial biogenesis by SB or HU treatment” value (K562 cells [3]; effect of co-treatment with AA) is reported as “significantly inhibited”. For the same compound, the “increase in FL-SMN transcript levels” value (FL-SMN mRNA) was “prevented” and the “induction of HbF-producing cells by SB or HU treatment” value (K562 cells [4]; effect of co-treatment with AA) was “significantly inhibited”.
With `C[S+]([O-])c1ccc(-c2nc(-c3ccncc3)c(-c3ccc(F)cc3)[nH]2)cc1` (stereo not drawn) [SB203580] the “Inhibits Mitochondrial Biogenesis?” value (XALD fibroblasts [1]) was “no”.
In the case of `CCCC(=O)[O-].[Na+]` [SB, Sodium butyrate], the peroxisomal proliferation (K562 cells [5]) is given as “significantly increased”, the mitochondrial mass (K562 cells [3]; [6]) is given as “significantly increased” and the HbF levels (HbF) is given as “increased”. The “number of HbF-producing cells” value (K562 cells [4]; [6]) was “significantly increased”.
